Reference: the NIST ThermoML archive (doi:10.1021/acs.jced.7b00221)

Assay: xn = mol fraction of the nth substance listed
Conditions: 100 kPa, Liquid; for viscosity: Cone and plate viscometry; for mass density: Vibrating tube method

CCCCCCn1cc[n+](C)c1C.O=S(=O)([N-]S(=O)(=O)C(F)(F)F)C(F)(F)F + CCCCCCCCCCCCCC[P+](CCCCCC)(CCCCCC)CCCCCC.O=S(=O)([N-]S(=O)(=O)C(F)(F)F)C(F)(F)F
viscosity [mPa·s]
Conditions	278.15 K	283.15 K	288.15 K	293.15 K	298.15 K	303.15 K	308.15 K	313.15 K	318.15 K	323.15 K
x2 = 0.2	707	483	336	242	179	136	106	84	68	55
x2 = 0.4	932	634	442	317	234	177	137	107	86	71
x2 = 0.596	1000	683	477	342	252	190	146	115	92	75
x2 = 0.749	1015	698	490	353	261	196	151	119	95	77
x2 = 0.898	1130	786	555	400	297	224	173	135	108	80

CCCCCCn1cc[n+](C)c1C.O=S(=O)([N-]S(=O)(=O)C(F)(F)F)C(F)(F)F + CCCCCCCC[P+](CC)(CC)CC.O=[N+]([O-])c1cn[n-]c1
x2 = 0
Conditions	mass density [kg/m3]
283.15 K	1373
288.15 K	1368.4
293.15 K	1363.9
295.15 K	1362.1
298.15 K	1359.5
303.15 K	1355.1
308.15 K	1350.8
313.15 K	1346.4
318.15 K	1342
323.15 K	1337.6
328.15 K	1333.2
333.15 K	1328.9
338.15 K	1324.5
343.15 K	1320.2
348.15 K	1315.8
353.15 K	1311.5

CCCCCC[n+]1ccn(C)c1.O=S(=O)([N-]S(=O)(=O)C(F)(F)F)C(F)(F)F + CCCCCCCC[P+](CC)(CC)CC.O=[N+]([O-])c1cn[n-]c1
x2 = 0
Conditions	mass density [kg/m3]
283.15 K	1385.6
288.15 K	1381
293.15 K	1376.5
295.15 K	1374.6
298.15 K	1371.9
303.15 K	1367.3
308.15 K	1362.8
313.15 K	1358.3
318.15 K	1353.7
323.15 K	1349.2
328.15 K	1344.7
333.15 K	1340.3
338.15 K	1335.8
343.15 K	1331.4
348.15 K	1326.9
353.15 K	1322.5

CCCCCCn1cc[n+](C)c1.O=[N+]([O-])c1cn[n-]c1 [1-hexyl-3-methylimidazolium 4-nitropyrazolide] + CCCCCCCC[P+](CC)(CC)CC.O=S(=O)([N-]S(=O)(=O)C(F)(F)F)C(F)(F)F
viscosity [mPa·s]
Conditions	278.15 K	283.15 K	288.15 K	293.15 K	298.15 K	303.15 K	308.15 K	313.15 K	318.15 K	323.15 K
x1 = 0.1	402	284	205	152	116	90	72	58	–	–
x1 = 0.299	470	325	230	168	127	98	77	62	51	–
x1 = 0.499	639	428	294	209	154	116	90	71	57	–
x1 = 0.701	1045	660	432	295	209	154	116	90	71	57
x1 = 0.9	2181	1262	765	488	326	227	164	122	93	74

CC[P+](CC)(CC)COCCOC.O=S(=O)([N-]S(=O)(=O)C(F)(F)F)C(F)(F)F + CCCCCCCCCC[P+](CC)(CC)CC.O=[N+]([O-])c1cn[n-]c1
x2 = 0
Conditions	viscosity [mPa·s]
278.15 K	84
283.15 K	65
288.15 K	51

CCCCCCCCCCCCCC[P+](CCCCCC)(CCCCCC)CCCCCC.O=S(=O)([N-]S(=O)(=O)C(F)(F)F)C(F)(F)F + CCCCCC[n+]1ccn(C)c1.O=S(=O)([N-]S(=O)(=O)C(F)(F)F)C(F)(F)F
viscosity [mPa·s]
Conditions	278.15 K	283.15 K	288.15 K	293.15 K	298.15 K	303.15 K	308.15 K	313.15 K	318.15 K	323.15 K
x1 = 0.2	390	280	205	153	118	92	74	60	–	–
x1 = 0.398	652	459	329	242	183	141	111	89	72	60
x1 = 0.596	873	611	434	316	236	180	140	111	90	73
x1 = 0.748	1019	706	500	362	270	204	158	124	100	81
x1 = 0.903	1114	774	547	396	293	221	171	134	107	86

CCCC[n+]1cccn1C.O=S(=O)([N-]S(=O)(=O)C(F)(F)F)C(F)(F)F [1-butyl-2-methylpyrazolium bis(trifluoromethylsulfonyl)imide] + CCCCCCSC(N(C)C)=[N+](C)C.O=S(=O)([N-]S(=O)(=O)C(F)(F)F)C(F)(F)F
mass density [kg/m3]
Conditions	x2 = 0.251	x2 = 0.502	x2 = 0.748
283.15 K	1431.2	1400.4	1375.8
288.15 K	1426.6	1395.7	1371.4
293.15 K	1421.9	1391.4	1366.9
295.15 K	1420.1	1389.9	1365.1
298.15 K	1417.3	1387.4	1362.4
303.15 K	1412.7	1382	1357.9
308.15 K	1408.1	1377.6	1353.5
313.15 K	1403.5	1373.2	1349
318.15 K	1398.9	1368.8	1344.6
323.15 K	1394.3	1364.7	1340.2
328.15 K	1389.7	1360.4	1335.8
333.15 K	1385.2	1356	1331.4
338.15 K	1380.6	1351.7	1327
343.15 K	1376.1	1347.3	1322.6
348.15 K	1371.6	1342.8	1318.3
353.15 K	1367.1	1338.4	1313.9

CCCCCCC[P+](CC)(CC)CC.O=[N+]([O-])c1cn[n-]c1 [triethylheptylphosphonium 4-nitropyrazolide] + CC[P+](CC)(CC)COCCOC.O=S(=O)([N-]S(=O)(=O)C(F)(F)F)C(F)(F)F
viscosity [mPa·s]
Conditions	278.15 K	283.15 K	288.15 K	293.15 K	298.15 K	303.15 K	308.15 K	313.15 K	318.15 K	323.15 K
x1 = 0.101	103	80	62	50	–	–	–	–	–	–
x1 = 0.248	135	101	78	61	50	–	–	–	–	–
x1 = 0.5	234	170	126	96	75	59	–	–	–	–
x1 = 0.75	474	328	231	168	126	97	76	61	50	–
x1 = 0.901	761	510	350	249	182	137	105	84	66	54

CCCCCCn1cc[n+](C)c1C.O=[N+]([O-])c1cn[n-]c1 [1-hexyl-2,3-dimethylimidazolium 4-nitropyrazolide] + CCCCCCCC[P+](CC)(CC)CC.O=S(=O)([N-]S(=O)(=O)C(F)(F)F)C(F)(F)F
viscosity [mPa·s]
Conditions	278.15 K	283.15 K	288.15 K	293.15 K	298.15 K	303.15 K	308.15 K	313.15 K	318.15 K	323.15 K
x1 = 0.101	401	284	204	151	115	90	72	57	–	–
x1 = 0.299	620	421	293	211	156	120	93	74	60	–
x1 = 0.499	992	636	423	292	209	154	118	91	72	59
x1 = 0.701	2252	1345	836	543	369	259	188	140	107	84
x1 = 0.899	6554	3416	1886	1108	689	450	307	216	157	119

CCCCCCCCCC[P+](CC)(CC)CC.O=[N+]([O-])c1cn[n-]c1 [decyltriethylphosphonium 4-nitropyrazolide] + CC[P+](CC)(CC)COCCOC.O=S(=O)([N-]S(=O)(=O)C(F)(F)F)C(F)(F)F
viscosity [mPa·s]
Conditions	278.15 K	283.15 K	288.15 K	293.15 K	298.15 K	303.15 K	308.15 K	313.15 K	318.15 K	323.15 K
x1 = 0.1	103	79	62	49	–	–	–	–	–	–
x1 = 0.25	160	120	91	72	57	–	–	–	–	–
x1 = 0.499	334	239	174	131	101	79	64	52	–	–
x1 = 0.75	716	486	337	241	178	135	104	82	66	55
x1 = 0.9	1198	788	531	370	265	195	149	115	91	73
